Results published in patent publication US8741929B2, “Methods using 3-(4-amino-1-oxo-1,3-dihydro-isoindol-2-yl)-piperidine-2,6-dione for treatment of mantle cell lymphomas” (Celgene Corporation, priority 2006, dated 2014).
Where “and” joins values, the source holds several entries; their conditions need not be identical. Equal values may be shown once.

How the values were obtained:
[1] = test system: relapsed or refractory mantle cell lymphoma (MCL)
Method: A single-center, open label, phase I/II study was conducted to determine the maximum tolerated dose (MTD) and to evaluate the efficacy of 3-(4-amino-1-oxo-1,3-dihydro-isoindol-2-yl)-piperidin-2,6-dione (lenalidomide or Revlimid®) in combination with rituximab for relapsed or refractory mantle cell lymphoma (MCL). Patients with one to four lines of prior therapy were eligible. Patients with prior treatment using thalidomide or rituximab, regardless of resistance, were eligible. […] A standard phase I dose escalation was used to determine MTD with dose levels at 10 mg, 15 mg, 20 mg, and 25 mg of Revlimid®. Dose-limiting toxicity (DLT) was defined as grade 3 or 4 non-hematologic or grade 4 hematologic toxicity during the first cycle.
Each cohort had 3 patients. […] The number of cycles given ranged from one to five cycles.

[2] = test system: relapsed and refractory aggressive non-Hodgkin's lymphoma (NHL); assay: Phase II study of oral lenalidomide monotherapy in patients; format: in vivo, human
Method: A multi-center, open-label, Phase II study was conducted in patients with relapsed and refractory aggressive non-Hodgkin's lymphoma (NHL). […] Patients in the study received lenalidomide in an amount of 25mg orally once daily for days one to 21 in a 28-day cycle and continued therapy for 52 weeks as tolerated or until disease progression.
Twenty-five patients age 45 to 80 years (median age 63), with relapsed and refractory aggressive NHL, and who had received a median of 2.5 prior treatments (range: 1-6 prior treatments), were administered with lenalidomide in an amount of 25 mg orally once daily for 21 days in the treatment cycle. Sixteen patients with aggressive NHL were evaluable for tumour assessment. Of the 16 patients, eight had diffuse large cell lymphoma, three had mantle cell lymphoma, two patients had follicular lymphoma, one had transformed lymphoma, and two had aggressive lymphoma of unknown histology.

[3] = first cycle, + rituximab, number of patients/events
[4] = 25 mg daily, 21/28 days, 16 evaluable patients
[5] = 25 mg orally once daily days 1-21 of 28-day cycle, 16 evaluable patients

What does the source list for `Nc1cccc2c1CN(C1CCC(=O)NC1=O)C2=O` (centres unmarked) [Revlimid®, 3-(4-amino-1-oxo-1,3-dihydro-isoindol-2-yl)-piperidine-2,6-dione]?
stable disease ([1]; at cycle 3 and cycle 5, respectively, + rituximab, seven evaluable): Two; maximum tolerated dose (MTD) ([1]; dose levels up to 20 mg Revlimid + rituximab 375 mg/m^2 weekly): the MTD has not been reached; grade 3 toxicity (thrombocytopenia) beyond the first cycle ([1]; during cycle 2, + rituximab, number of events): 1; grade 2 anemia ([1]; first cycle, + rituximab): one; Grade 1 hematologic events: anemia [1, 3]: 1; Grade 1 hematologic events: leukopenia [1, 3]: 3; Grade 1 hematologic events: thrombocytopenia [1, 3]: 2; Grade 1 non-hematologic toxic events: fatigue [1, 3]: 4; Grade 1 non-hematologic toxic events: myalgias [1, 3]: 2; Grade 1 non-hematologic toxic events: pruritis [1, 3]: 3; Grade 1 non-hematologic toxic events: stomatitis [1, 3]: 3; Grade 2 non-hematologic toxic events: myalgias [1, 3]: 2; Grade 2 non-hematologic toxic events: rash [1, 3]: 2; study conclusion on efficacy ([1]; particularly relapsed or refractory mantle cell lymphoma): effective in treating mantle cell lymphoma; complete response [2, 4]: One; partial responses [2, 4]: four; stable disease [2, 4]: Four; Grade 4 adverse reaction ([2]; 25 mg daily, 21/28 days, of 22 patients): three; Grade 3 and 4 adverse events ([2]; 25 mg daily, 21/28 days, predominately haematological and Grade 3): ten of 22; objective responses [2, 5]: five; objective responses (rate) [2, 5]: 31 per cent; disease progression ([2]; after a median follow-up of two months (range one to seven months)): Seven; progression free survival ([2]; one patient with diffuse large cell lymphoma, complete response): more than 180 days; progression free survival ([2]; one patient with follicular lymphoma, partial response): more than 55 days; progression free survival ([2]; one patient with mantle cell lymphoma, partial response): more than 57 days; progression free survival ([2]; single patients with diffuse large cell lymphoma, partial response, listed as lenalidomide): 135 days and 242 days
